What was measured:
[1] = tested on: RNA 2 (RNA, riboswitch) CCGGCAUAGCUUGUCCUUUAAUGGUCCUAUGUCGAAAAUG; assay: native ESI MS with CAD top-down MS (FT-ICR); conditions: NH4+ 50 mM (ammonium bicarbonate), no divalent ions; 9:1 H2O/CH3OH, 0.25 mM piperazine, pH ~7.5; 1 μM RNA, 1-5 μM neomycin B; fourth molecule unspecific
[2] = tested on: RNA 5 (RNA, riboswitch) CCGGCAUAGCUUCUCCUUUAAUGGUCCUAUGUCGAAAAUG; assay: native ESI MS with CAD top-down MS (Orbitrap); conditions: motif C occupancy reduced to ~60% in 1:3 complexes
[3] = tested on: 15N-labeled RNA 2 (RNA, riboswitch) CCGGCAUAGCUUGUCCUUUAAUGGUCCUAUGUCGAAAAUG; assay: 1H NMR imino proton titration; conditions: Na+ (25 mM NaCl, 15 mM sodium phosphate); pH 6.5, 15 °C, 10% D2O, 280 μM RNA, 0-4.5 equivalents; slow exchange in 0-1 equivalent range
[4] = tested on: RNA 3 (RNA, riboswitch) CCGUCAUAGCUUGUCCUUUAAUGGUCCUAUGACGAAAAUG; assay: native ESI MS with CAD top-down MS (FT-ICR); conditions: NH4+ 50 mM (ammonium bicarbonate), no divalent ions; 9:1 H2O/CH3OH, 0.25 mM piperazine, pH ~7.5; 1 μM RNA, 1-5 μM neomycin B
[5] = tested on: RNA 4 (RNA, riboswitch) CCCUGAUAGCUUGUCCUUUAAUGGUCCUAUCUGGAAAAUG; assay: native ESI MS with CAD top-down MS (FT-ICR); conditions: NH4+ 50 mM (ammonium bicarbonate), no divalent ions; 9:1 H2O/CH3OH, 0.25 mM piperazine, pH ~7.5; 1 μM RNA, 1-5 μM neomycin B

binding [1]: yes
binding [2]: yes
binding [3]: yes
binding [4]: yes
binding [5]: yes
SMILES: NC[C@@H]1O[C@H](O[C@H]2[C@@H](O)[C@H](O[C@@H]3[C@@H](O)[C@H](N)C[C@H](N)[C@H]3O[C@H]3O[C@H](CN)[C@@H](O)[C@H](O)[C@H]3N)O[C@@H]2CO)[C@H](N)[C@@H](O)[C@@H]1O
